# How the values were obtained:
# Format in all cases: in vivo
# [1] = tested on: wheat (Triticum aestivum); assay: Test A greenhouse herbicide test, pre- and postemergence; conditions: Postemergence
# Outline: (§1)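 Seeds in loam–sand blend received a preemergence directed soil spray; plants at 2–10 cm, one- to two-leaf stage, received postemergence sprays. Compounds in a non-phytotoxic solvent with surfactant. After about 10 d in a greenhouse, injury rated visually versus untreated controls on a 0–100 scale (100 = complete control).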
# [2] = tested on: foxtail, giant (giant foxtail, Setaria faberii); assay: as above
# Outline: as §1
# [3] = tested on: ryegrass, Italian (Italian ryegrass, Lolium multiflorum); assay: as above
# Outline: as §1
# corn (Zea mays) [4] = assay: as above; conditions: Postemergence
# Outline: as §1
# [5] = tested on: waterhemp (common waterhemp, Amaranthus rudis); assay: Test C greenhouse herbicide test, pre- and postemergence
# Outline: (§2)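 Pre- and postemergence greenhouse screen; values are visual control ratings, 0 meaning no effect and 100 complete kill, assigned relative to untreated plants after 13 to 15 d.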
# soybean (Glycine max) = assay: as above
# Outline: as §2
# [6] = tested on: velvetleaf (Abutilon theophrasti); assay: as above
# Outline: as §2
# [7] = tested on: blackgrass (Alopecurus myosuroides); assay: as above
# Outline: as §2
# [8] = tested on: pigweed (Amaranthus retroflexus); assay: as above
# Outline: as §2
# [9] = tested on: nutsedge, yellow (yellow nutsedge, Cyperus esculentus); assay: as above
# Outline: as §2
# corn (Zea mays) [10] = assay: as above
# Outline: as §2
# [11] = 125 g ai/ha, 0 to 100 scale where 0 is no effect and 100 is complete control
# [12] = 500 g ai/ha, visual rating after approx. 10 d, 0 to 100 scale (0 no effect, 100 complete control)
# [13] = Postemergence, 125 g ai/ha, 0 to 100 scale where 0 is no effect and 100 is complete control
# [14] = Postemergence, 500 g ai/ha, visual rating after approx. 10 d, 0 to 100 scale (0 no effect, 100 complete control)
# [15] = Preemergence, 125 g ai/ha, 0 to 100 scale where 0 is no effect and 100 is complete control
# [16] = Preemergence, 500 g ai/ha, 0 to 100 scale where 0 is no effect and 100 is complete control
# [17] = Postemergence, 31 g ai/ha, scale 0 to 100 (0 no effect, 100 complete control)
# [18] = Postemergence, 125 g ai/ha, scale 0 to 100, 0 is no effect, 100 is complete control
# [19] = Postemergence, 250 g ai/ha, scale 0 to 100, 0 no effect, 100 complete control, 13 to 15 d
# [20] = Preemergence, 31 g ai/ha, scale 0 to 100, 0 is no effect, 100 is complete control
# [21] = Preemergence, 62 g ai/ha, scale 0 to 100, 0 is no effect, 100 is complete control
# [22] = Preemergence, 125 g ai/ha, scale 0 to 100, 0 is no effect, 100 is complete control
# [23] = Preemergence, 250 g ai/ha, scale 0 to 100, 0 no effect, 100 complete control
# [24] = postemergence, 62 g ai/ha, scale 0 to 100, 0 no effect, 100 complete control
# [25] = 500 g ai/ha, 0 to 100 scale, 0 is no effect, 100 is complete control
# [26] = Postemergence, 500 g ai/ha, 0 to 100 scale, 0 is no effect, 100 is complete control
# [27] = Preemergence, 500 g ai/ha, 0 to 100 scale, 0 no effect, 100 complete control
# [28] = Postemergence, 31 g ai/ha, 0 to 100 scale (0 no effect, 100 complete control)
smiles,measurement,setting,value
CCCC(=O)Oc1c(C)nn(C)c(=O)c1-c1c(CC)sc2ccc(C)cc12 [Compound 107],"Plant response rating, Wheat",[1]; [11],30
same,"Plant response rating, Wheat",[1]; [12],20
same,"Plant response rating, Foxtail, Giant",[2]; [13],70
same,"Plant response rating, Foxtail, Giant",[2]; [14],90
same,"Foxtail, Giant plant response rating",[2]; [15],70
same,"Plant response rating, Foxtail, Giant",[2]; [16],100
same,"Plant response rating, Ryegrass, Italian",[3]; [13],60
same,"Plant response rating, Ryegrass, Italian",[3]; [14],90
same,"Ryegrass, Italian plant response rating",[3]; [15],80
same,"Plant response rating, Ryegrass, Italian",[3]; [16],100
same,"Plant response rating, Corn",corn (Zea mays) [4]; [11],0
same,"Plant response rating, Corn",corn (Zea mays) [4]; [12],30
same,"Plant response rating, Waterhemp",[5]; [17],75
same,"Plant response rating, Waterhemp",[5]; [18],95
same,"Plant response rating, Waterhemp",[5]; [19],90
same,"Plant response rating, Waterhemp",[5]; [20],75
same,"Plant response rating, Waterhemp",[5]; [21],75
same,"Plant response rating, Waterhemp",[5]; [22],95
same,Waterhemp plant response rating,[5]; [23],98
same,"Plant response rating, Soybean",soybean (Glycine max); [17],0
same,"Plant response rating, Soybean",soybean (Glycine max); [18],20
same,"Plant response rating, Soybean",soybean (Glycine max); [19],10
same,"Plant response rating, Soybean",soybean (Glycine max); [20],75
same,"Plant response rating, Soybean",soybean (Glycine max); [21],0
same,"Plant response rating, Soybean",soybean (Glycine max); [22],0
same,Soybean plant response rating,soybean (Glycine max); [23],15
same,"Plant response rating, Velvetleaf",[6]; [17],75
same,"Plant response rating, Velvetleaf",[6]; [18],95
same,"Plant response rating, Velvetleaf",[6]; [19],100
same,"Plant response rating, Velvetleaf",[6]; [20],30
same,"Plant response rating, Velvetleaf",[6]; [21],60
same,"Plant response rating, Velvetleaf",[6]; [22],85
same,Velvetleaf plant response rating,[6]; [23],90
same,"Plant response rating, Blackgrass",[7]; [17],0
same,"Plant response rating, Blackgrass",[7]; [18],5
same,"Plant response rating, Blackgrass",[7]; [19],30
same,"Plant response rating, Blackgrass",[7]; [20],0
same,"Plant response rating, Blackgrass",[7]; [21],5
same,"Plant response rating, Blackgrass",[7]; [22],10
same,Blackgrass plant response rating,[7]; [23],10
same,Blackgrass plant response rating,[7]; [24],5
same,"Plant response rating, Pigweed",[8]; [17],85
same,"Plant response rating, Pigweed",[8]; [18],98
same,"Plant response rating, Pigweed",[8]; [19],98
same,"Plant response rating, Pigweed",[8]; [20],100
same,"Plant response rating, Pigweed",[8]; [21],100
same,"Plant response rating, Pigweed",[8]; [22],100
same,Pigweed plant response rating,[8]; [23],100
same,"Plant response rating, Nutsedge, Yellow",[9]; [17],80
same,"Plant response rating, Nutsedge, Yellow",[9]; [18],75
same,"Plant response rating, Nutsedge, Yellow",[9]; [19],85
same,"Plant response rating, Nutsedge, Yellow",[9]; [20],30
same,"Plant response rating, Nutsedge, Yellow",[9]; [21],50
same,"Plant response rating, Nutsedge, Yellow",[9]; [22],70
same,"Nutsedge, Yellow plant response rating",[9]; [23],90
same,"Plant response rating, Corn",corn (Zea mays) [10]; [17],5
same,"Plant response rating, Corn",corn (Zea mays) [10]; [18],20
same,"Plant response rating, Corn",corn (Zea mays) [10]; [19],15
same,"Plant response rating, Corn",corn (Zea mays) [10]; [20],0
same,"Plant response rating, Corn",corn (Zea mays) [10]; [21],0
same,"Plant response rating, Corn",corn (Zea mays) [10]; [22],10
same,Corn plant response rating,corn (Zea mays) [10]; [23],15
same,Corn plant response rating,corn (Zea mays) [10]; [24],10
Cc1cc2ccccc2c(-c2c(O)c(C)nn(C)c2=O)c1C [Compound 34],"Plant response rating, Wheat",[1]; [11],20
same,Wheat plant response rating,[1]; [25],40
same,"Plant response rating, Foxtail, Giant","[2]; Postemergence, 125 g ai/ha, visual rating after approx. 10 d, 0 to 100 scale (0 no effect, 100 complete control)",30
same,"Foxtail, Giant plant response rating",[2]; [26],90
same,"Foxtail, Giant plant response rating",[2]; [15],40
same,"Plant response rating, Foxtail, Giant",[2]; [27],90
same,"Plant response rating, Ryegrass, Italian",[3]; [13],100
same,"Ryegrass, Italian plant response rating",[3]; [26],100
same,"Ryegrass, Italian plant response rating",[3]; [15],100
same,"Plant response rating, Ryegrass, Italian",[3]; [27],100
same,"Plant response rating, Corn","corn (Zea mays) [4]; 125 g ai/ha, visual rating after approx. 10 d, 0 to 100 scale (0 no effect, 100 complete control)",0
same,Corn plant response rating,corn (Zea mays) [4]; [25],0
same,Waterhemp plant response rating,[5]; [28],85
same,"Plant response rating, Waterhemp",[5]; [18],90
same,"Plant response rating, Waterhemp",[5]; [19],98
same,"Plant response rating, Waterhemp",[5]; [21],100
same,"Plant response rating, Waterhemp",[5]; [22],100
same,Waterhemp plant response rating,[5]; [23],100
same,Waterhemp plant response rating,[5]; [24],85
same,Soybean plant response rating,soybean (Glycine max); [28],5
same,"Plant response rating, Soybean",soybean (Glycine max); [18],15
same,"Plant response rating, Soybean",soybean (Glycine max); [19],5
same,"Plant response rating, Soybean",soybean (Glycine max); [21],10
same,"Plant response rating, Soybean",soybean (Glycine max); [22],0
same,Soybean plant response rating,soybean (Glycine max); [23],5
same,Soybean plant response rating,soybean (Glycine max); [24],5
same,Velvetleaf plant response rating,[6]; [28],50
same,"Plant response rating, Velvetleaf",[6]; [18],100
same,"Plant response rating, Velvetleaf",[6]; [19],90
same,"Plant response rating, Velvetleaf",[6]; [21],80
same,"Plant response rating, Velvetleaf",[6]; [22],85
same,Velvetleaf plant response rating,[6]; [23],98
same,Velvetleaf plant response rating,[6]; [24],80
same,Blackgrass plant response rating,[7]; [28],10
same,"Plant response rating, Blackgrass",[7]; [18],35
same,"Plant response rating, Blackgrass",[7]; [19],60
same,"Plant response rating, Blackgrass",[7]; [20],5
same,"Plant response rating, Blackgrass",[7]; [21],50
same,"Plant response rating, Blackgrass",[7]; [22],85
same,Blackgrass plant response rating,[7]; [23],90
same,Blackgrass plant response rating,[7]; [24],10
same,Pigweed plant response rating,[8]; [28],90
same,"Plant response rating, Pigweed",[8]; [18],80
same,"Plant response rating, Pigweed",[8]; [19],98
same,"Plant response rating, Pigweed",[8]; [20],100
same,"Plant response rating, Pigweed",[8]; [21],100
same,"Plant response rating, Pigweed",[8]; [22],100
same,Pigweed plant response rating,[8]; [23],100
same,Pigweed plant response rating,[8]; [24],85
same,"Nutsedge, Yellow plant response rating",[9]; [28],45
same,"Plant response rating, Nutsedge, Yellow",[9]; [18],85
same,"Plant response rating, Nutsedge, Yellow",[9]; [19],85
same,"Plant response rating, Nutsedge, Yellow",[9]; [20],25
same,"Plant response rating, Nutsedge, Yellow",[9]; [21],25
same,"Plant response rating, Nutsedge, Yellow",[9]; [22],35
same,"Nutsedge, Yellow plant response rating",[9]; [23],65
same,"Nutsedge, Yellow plant response rating",[9]; [24],60
same,Corn plant response rating,corn (Zea mays) [10]; [28],0
same,"Plant response rating, Corn",corn (Zea mays) [10]; [18],5
same,"Plant response rating, Corn",corn (Zea mays) [10]; [19],5
same,"Plant response rating, Corn",corn (Zea mays) [10]; [20],0
same,"Plant response rating, Corn",corn (Zea mays) [10]; [21],0
same,"Plant response rating, Corn",corn (Zea mays) [10]; [22],10
same,Corn plant response rating,corn (Zea mays) [10]; [23],0
same,Corn plant response rating,corn (Zea mays) [10]; [24],5

# Source: patent US10597388B2, “Pyridazinone herbicides” (FMC CORPORATION, priority 2014, dated 2020)
